Consider twelve compounds from publication PMC10385371, “Discovery of Novel Coumarin-Schiff Base Hybrids as Potential Acetylcholinesterase Inhibitors: Design, Synthesis, Enzyme Inhibition, and Computational Studies” (Pharmaceuticals, 2023).

For assay [1], the target named is T1, Acetylcholinesterase (Type VI-S, from Electrophorus electricus) (Electrophorus electricus, UniProt O42275).
T1 construct: purchased Sigma Aldrich Type VI-S (catalogue number not given)
Briefly: biochemical. It is filed as biochemical. The following applies: for IC50: read-out: IC50 against AChE; for potency relative to galantamine (positive control): ratio of AChE IC50 values. As to the method:
The procedure described by Ellman, slightly modified, was performed to assess the AChE inhibitory activity of synthesized compounds, according to reported procedures in the literature. Detailed protocol is provided in supplementary materials. […]
In vitro inhibition study on AChE
The assay for AChE inhibitory activity was done based on a modified protocol. Acetylcholinesterase (Type VI-S, from Electrophorus electricus), 5,5′-dithiobis-2-nitrobenzoic acid (Ellman's reagent, DTNB) and acetylthiocholine chloride (ATCI) were purchased from Sigma Aldrich. Enzyme solutions were prepared to give 0.28 units/mL aliquots. Stock solutions were prepared by dissolving 1 mg of tested compounds in 1 mL of DMSO and diluted to a final concentration of 1000, 800, 600, 400, 200, 100, and 50 µg/mL. The assay buffer solution A (pH = 8.0) was prepared by taking 93.2 mL of solution (6 g of sodium dihydrogen phosphate was dissolved in 500 mL of deionized water) and mixed with 6.8 mL of solution (7 g of sodium hydrogen phosphate was dissolved in 500 mL of deionized water) and adjusted. 57.7 mL of sodium dihydrogen phosphate and 42.3 mL of sodium hydrogen phosphate were mixed and adjusted to prepare the buffer B (pH = 7.0). […]
fresh solutions of 0.01 M DTNB (0.396 g of DTNB and 15 mg NaHCO3 were dissolved in 100 mL of the buffer B) in a dark place, and 0.075 M ATCI (0.2048 g of ATCI was dissolved in 10 mL of deionized water), were prepared. In 96-well plates, 20 μL of the test compounds, 10 μL of DTNB, 15 μL of the enzyme (AChE) and 140 μL of the buffer solution A, were added in dark conditions and incubated for 15 min, followed by the addition of ATCI (10 μL) and incubated again for the same period. The activity was measured by reading the absorbance of the solution at 412 nm. Blanks containing all the components except the enzyme were carried out.
IC50 values were calculated as the concentration of a compound that produces 50% enzyme activity inhibition using the GraphPad Prism 8 programme package. Results are expressed as the mean ± SD of at least three different experiments performed in triplicate.
Percentage inhibition was calculated by this formula:
% ሺInhibitionሻ = B−AB X 100
• A= absorbance of the enzyme with the test sample;
• B = absorbance of the enzyme without test sample.
• Each experiment was repeated thrice.

Assay [2] has as its target human monoamine oxidase hMAO-B. The following applies: cited from earlier work.
The target of assay [3] is human monoamine oxidase hMAO-A. The following applies: cited from earlier work.
Another assay has as its system AChE. The following applies: read-out: IC50 against AChE; cited from earlier work.

Molecules are shown by their SMILES. Values joined by “and” are separate entries in the source; they are usually repeats but may differ in a detail not shown here. Identical values can stand only once.

T1 sequence (O42275 24-633): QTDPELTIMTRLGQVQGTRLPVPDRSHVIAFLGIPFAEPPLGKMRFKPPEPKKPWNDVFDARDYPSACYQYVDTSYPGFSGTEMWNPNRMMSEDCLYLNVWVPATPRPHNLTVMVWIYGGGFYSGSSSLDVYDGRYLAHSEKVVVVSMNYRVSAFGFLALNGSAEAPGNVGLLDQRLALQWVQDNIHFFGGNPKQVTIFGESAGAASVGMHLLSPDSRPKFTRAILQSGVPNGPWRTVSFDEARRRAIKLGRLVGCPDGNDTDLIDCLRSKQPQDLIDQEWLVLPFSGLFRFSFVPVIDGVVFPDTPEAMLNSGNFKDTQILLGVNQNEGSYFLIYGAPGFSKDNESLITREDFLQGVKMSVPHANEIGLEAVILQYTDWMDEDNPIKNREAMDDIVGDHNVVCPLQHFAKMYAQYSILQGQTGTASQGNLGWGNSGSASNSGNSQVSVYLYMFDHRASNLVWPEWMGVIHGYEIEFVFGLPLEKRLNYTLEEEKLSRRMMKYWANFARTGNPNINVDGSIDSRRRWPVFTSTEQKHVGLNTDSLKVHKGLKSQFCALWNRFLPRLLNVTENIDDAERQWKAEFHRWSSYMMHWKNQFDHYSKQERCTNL

Consider `COc1ccc(/N=C/c2ccc(OCc3cc(=O)oc4cc(OC)ccc34)c(OC)c2)cc1` [13f, (E)-7-Methoxy-4-((2-methoxy-4-(((4-methoxyphenyl)imino)methyl)phenoxy)methyl)-2H-chromen-2-one], for which the concentration for half-maximal inhibition (IC50) in assay [1] came to 365 ± 25 µM.

With `COc1ccc2c(COc3ccc(/C=N/c4ccc(Cl)cc4)cc3OC)cc(=O)oc2c1` [13d, (E)-4-((4-(((4-Chlorophenyl)imino)methyl)-2-methoxyphenoxy)methyl)-7-methoxy-2H-chromen-2-one], the “potency relative to galantamine (positive control)” value in assay [1] was 5 fold and ~ 5 fold.

With `COc1ccc2c(COc3cccc(/C=N/c4ccc(Cl)cc4)c3)cc(=O)oc2c1` [13j, (E)-4-((3-(((4-Chlorophenyl)imino)methyl)phenoxy)methyl)-7-methoxy-2H-chromen-2-one], the IC50 in assay [1] amounted to 651 ± 3 µM.

For the compound `COc1ccc(/N=C/c2ccc(OCc3cc(=O)oc4cc(OC)ccc34)cc2)cc1` [13b, (E)-7-Methoxy-4-((4-(((4-methoxyphenyl)imino)methyl)phenoxy)methyl)-2H-chromen-2-one], in assay [1], the half-maximal inhibitory concentration (IC50) was 466 ± 7 µM.

`COc1ccc2c(COc3cc(/C=N/c4ccc(Cl)cc4)ccc3OC)cc(=O)oc2c1` [13i, (E)-4-((5-(((4-Chlorophenyl)imino)methyl)-2-methoxyphenoxy)methyl)-7-methoxy-2H-chromen-2-one]: in assay [1], the half-inhibitory concentration (IC50) was determined as 712 ± 44 µM.

Take `COc1ccc2c(COc3ccc(/C=N/c4ccccc4)cc3OC)cc(=O)oc2c1` [13e, (E)-7-Methoxy-4-((2-methoxy-4-((phenylimino)methyl)phenoxy)methyl)-2H-chromen-2-one]: the half-inhibitory concentration (IC50) in assay [1] worked out at 297 ± 6 µM.

Turning to `O=c1oc2ccccc2c(O)c1/N=C/c1ccc(O)c(O)c1O` [compound 4], the half-inhibitory concentration (IC50) in assay [2] is 0.711 µM; in assay [3] it was 0.673 µM.

On to `Cc1c(O)ccc2c(CC(=O)NCCN3CCN(Cc4ccccc4)CC3)cc(=O)oc12` [compound 3], for which, in the assay with AChE, the IC50 was 0.04 µM.

Take `COc1ccc(/N=C/c2cccc(OCc3cc(=O)oc4cc(OC)ccc34)c2)cc1` [13g, (E)-7-Methoxy-4-((3-(((4-methoxyphenyl)imino)methyl)phenoxy)methyl)-2H-chromen-2-one]: in assay [1], the IC50 is 1090 ± 58 µM.

For `COc1ccc2c(COc3ccc(/C=N/c4ccc(Cl)cc4)cc3)cc(=O)oc2c1` [13c, (E)-4-((4-(((4-Chlorophenyl)imino)methyl)phenoxy)methyl)-7-methoxy-2H-chromen-2-one], in assay [1], the “potency relative to galantamine (positive control)” value was 5 fold and ~ 5 fold; the IC50 worked out at 232 ± 11 µM.

Consider `O=C(N/N=C\c1c2ccccc2cc2ccccc12)c1ccccc1O` [compound 5], for which, in the assay on AChE, the IC50 was 4.12 µM.

Turning to `COc1ccc2c(COc3ccc(/C=N/c4ccccc4)cc3)cc(=O)oc2c1` [13a, (E)-7-Methoxy-4-((4-((phenylimino)methyl)phenoxy)methyl)-2H-chromen-2-one], the IC50 in assay [1] is 440 ± 16 µM.

For orientation: IC50 means the concentration needed to halve the response being measured.
